“And” between values parts separate entries of the source, which are not always exact repeats. Equal entries are not always repeated.
Columns and labels:
Type in all cases: in vivo
Ipomoea hederacea = experiment: Post-emergence herbicidal action against Ipomoea hederacea; conditions: 100 g of a.i./ha
Procedure: (§1) When the observed efficacies exceed the formal sum total of the values of the tests with individual applications, they also exceed the expected value according to Colby, which is calculated using the formula below and is likewise regarded as an indication of synergism (cf. S. R. Colby; in Weeds 15 (1967) p. 20 to 22): E^C=A+B−([…])
(§2) Here: • A=efficacy of the active compound (A) in % at an application rate of a g a.i./ha; • B=efficacy of the active compound (B) in % at an application rate of b g a.i./ha; • E^C=expected value of the effect of the combination (A)+(B) in % at the combined application rate a+b g a.i./ha.
(§3) Seeds or rhizome pieces of mono- and dicotyledonous weeds are placed in sandy loam in pots, covered with soil and grown in a greenhouse under good growth conditions (temperature, air humidity, water supply). Three weeks after sowing, the test plants were treated at the three-leaf stage with the compositions according to the invention. The compositions according to the invention formulated as spray powders or as emulsion concentrates were sprayed onto the green plant parts in various dosages with an application rate of 300 to 800 l/ha of water (equivalent). After the test plants have been left to stand in the greenhouse under optimal growth conditions for about 3 to 4 weeks, the action of the preparations is scored visually in comparison to untreated controls. The compositions according to the invention also have good post-emergence herbicidal activity against a broad spectrum of economically important gramineous and broadleaf weeds.

Bellis perenne = experiment: Post-emergence herbicidal action against Bellis perenne; conditions: 100 g of a.i./ha
Procedure: as §1, §2
as §3, with “The compositions according to the invention also have good post-emergence herbicidal activity against a broad spectrum of economically important gramineous and broadleaf weeds.” left out

Setaria viridis = experiment: Post-emergence herbicidal action against Setaria viridis; conditions: 1.7 g of a.i./ha
Outline: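 Visual scoring against untreated controls, made 3 to 4 weeks after treatment, gives the % efficacy. Plants grown in pots of sandy loam were sprayed on green parts at the three-leaf stage with formulated compositions at 300 to 800 l/ha water. Combination efficacy above the Colby expected value indicates synergism.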

Phalaris minor = experiment: Post-emergence herbicidal action against Phalaris minor
Outline: (§4)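 Colby-derived expected values (E^C) and the summed effects of the separate applications (E^A) accompany each rating. Active substance was dosed in grams per hectare on a 100% active-compound basis, with the rating period given as DAT.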

Viola tricolor = experiment: Post-emergence herbicidal action against Viola tricolor
Outline: as §4

Brachiaria plantaginea = experiment: Post-emergence herbicidal action against Brachiaria plantaginea
Text: The following abbreviations are used in the description and the tables that follow: • g of a.i./ha=grams of active substance (active ingredient) (=100% active compound) per hectare; • The sum total of the effects of the individual applications is reported under E^A; • expected values according to Colby are each reported under E^C.
The rating period is reported in days after application (DAT).

Lolium rigidum [1] = experiment: Post-emergence herbicidal action against Lolium rigidum
Veronica hederifolia = experiment: Post-emergence herbicidal action against Veronica hederifolia; conditions: 28 DAT; 1 g a.i./ha
[2] = test system: Lolium rigidum (resistant biotype); experiment: Post-emergence herbicidal action against Lolium rigidum (resistant biotype)
Matricaria inodora = experiment: Post-emergence herbicidal action against Matricaria inodora; conditions: for Herbicidal action: 1 g a.i./ha
Bromus sterilis [3] = experiment: Post-emergence herbicidal action against Bromus sterilis; conditions: 1 g of a.i./ha
Centaurea cyano = experiment: Post-emergence herbicidal action against Centaurea cyano
Outline: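 Greenhouse pot-grown plants sprayed post-emergence at the three-leaf stage, three weeks after sowing, with spray-powder or emulsion-concentrate formulations at various dosages in 300 to 800 l/ha water on green parts.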

Lolium rigidum [4] = experiment: Post-emergence herbicidal action against Lolium rigidum; remark: listed apart in the source
Lysimachia nummularia = experiment: Post-emergence herbicidal action against Lysimachia nummularia; conditions: 45 DAT; 100 g a.i./ha
Bromus sterilis [5] = experiment: Post-emergence herbicidal action against Bromus sterilis
Alopecurus myosuroides = experiment: Post-emergence herbicidal action against Alopecurus myosuroides
Bromus sterilis [6] = experiment: Post-emergence herbicidal action against Bromus sterilis; remark: listed apart in the source
Outline: as §4

[7] = (Z61) post-emergence, g of a.i./ha: 1, 270, 90, 1 + 270, 1 + 90

SMILES: C=C[C@]1(C(=O)N[C@H]2CO[C@@H](C(=O)OC)C2)CC(c2cc(F)cc(F)c2)=NO1 (relative stereo) [Compound A3, methyl rel-(2R,4R)-4-[[(5S)-3-(3,5-difluorophenyl)-5-vinyl-4H-isoxazole-5-carbonyl]amino]tetrahydrofuran-2-carboxylate]
- Herbicidal action 37 DAT against Ipomoea hederacea (Ipomoea hederacea): 8%
- Herbicidal action 37 DAT [%] against Ipomoea hederacea (Ipomoea hederacea; post-emergence): 8%
- Herbicidal action 43 DAT [%] against Bellis perenne (Bellis perenne): 0%
- Herbicidal action 21 DAT against Setaria viridis (Setaria viridis): 70%
- Herbicidal action 21 DAT [%] against Setaria viridis (Setaria viridis; post-emergence): 70%
- Herbicidal action 14 DAT against Phalaris minor (Phalaris minor; 1 g of a.i./ha): 10%
- Herbicidal action 28 DAT against Phalaris minor (Phalaris minor; 1 g of a.i./ha): 0% and 10%
- Herbicidal action 28 DAT against Phalaris minor (Phalaris minor; 4 g of a.i./ha): 70%
- Herbicidal action in [%] 14 DAT against Phalaris minor (Phalaris minor; 1 g of a.i./ha): 20%
- Herbicidal action in [%] 14 DAT against Phalaris minor (Phalaris minor; 4 g of a.i./ha): 85%
- Herbicidal action in [%] 14 DAT against Phalaris minor (Phalaris minor; 16 g of a.i./ha): 85%
- Herbicidal action 28 DAT against Phalaris minor (Phalaris minor; 16 g of a.i./ha): 40%
- Herbicidal action in [%] 28 DAT against Phalaris minor (Phalaris minor; 1 g of a.i./ha): 10%
- Herbicidal action in [%] 28 DAT against Phalaris minor (Phalaris minor; 16 g of a.i./ha): 85%
- Herbicidal action 14 DAT against Viola tricolor (Viola tricolor; 1 g of a.i./ha): 50%
- Herbicidal action 28 DAT against Viola tricolor (Viola tricolor; 1 g of a.i./ha): 15%
- Herbicidal action 28 DAT against Viola tricolor (Viola tricolor; 4 g of a.i./ha): 30%
- Herbicidal action 14 DAT against Viola tricolor (Viola tricolor; 16 g of a.i./ha): 85%
- Herbicidal action 28 DAT against Viola tricolor (Viola tricolor; 16 g of a.i./ha): 20%
- Herbicidal action 28 DAT against Viola tricolor (Viola tricolor; (Z61) post-emergence, g of a.i./ha: 16, 1, 30, 16 + 30, 1 + 30, 1 g of a.i./ha): 15%
- Herbicidal action 28 DAT against Viola tricolor (Viola tricolor; (Z61) post-emergence, g of a.i./ha: 16, 1, 30, 16 + 30, 1 + 30, 16 g of a.i./ha): 20%
- Herbicidal action 28 DAT [%] against Brachiaria plantaginea (Brachiaria plantaginea; 100 g of a.i./ha): 82%
- Herbicidal action 28 DAT against Brachiaria plantaginea (Brachiaria plantaginea; (Z61) post-emergence, g of a.i./ha: 200, 100, 100 + 200): 82%
- Herbicidal action 28 DAT against Brachiaria plantaginea (Brachiaria plantaginea; A3/Asulam, post-emergence, g of a.i./ha by row: 720, 100, 100 + 720): 82%
- Herbicidal action against Lolium rigidum (Lolium rigidum [1]; 14 DAT, 1 g of a.i./ha): 35%
- Herbicidal action against Lolium rigidum (Lolium rigidum [1]; 28 DAT, 1 g of a.i./ha): 15%
- Herbicidal action against Lolium rigidum (Lolium rigidum [1]; 28 DAT, 4 g of a.i./ha): 50%
- Herbicidal action (Veronica hederifolia): 30%
- Herbicidal action against Lolium rigidum (resistant biotype) ([2]; 14 DAT, 1 g of a.i./ha): 15%
- Herbicidal action against Lolium rigidum (resistant biotype) ([2]; 14 DAT, 4 g of a.i./ha): 40%
- Herbicidal action against Lolium rigidum (resistant biotype) ([2]; 28 DAT, 1 g of a.i./ha): 0%
- Herbicidal action 14 DAT against Matricaria inodora (Matricaria inodora; 1 g of a.i./ha): 0%
- Herbicidal action 28 DAT against Matricaria inodora (Matricaria inodora; 1 g of a.i./ha): 0%
- Herbicidal action in [%] 28 DAT against Matricaria inodora (Matricaria inodora; 1 g of a.i./ha, post-emergence): 0%
- Herbicidal action 14 DAT against Matricaria inodora (Matricaria inodora; 4 g of a.i./ha): 30%
- Herbicidal action 28 DAT against Matricaria inodora (Matricaria inodora; 4 g of a.i./ha): 30%
- Herbicidal action in [%] 14 DAT against Matricaria inodora (Matricaria inodora; 4 g of a.i./ha): 20%
- Herbicidal action in [%] 28 DAT against Matricaria inodora (Matricaria inodora; 4 g of a.i./ha, post-emergence): 0%
- Herbicidal action (Matricaria inodora; 14 DAT): 0%
- Herbicidal action against Matricaria inodora (Matricaria inodora; 14 DAT, 4 g of a.i./ha): 20%
- Herbicidal action against Matricaria inodora (Matricaria inodora; 14 DAT, 16 g of a.i./ha): 20%
- Herbicidal action 14 DAT against Matricaria inodora (Matricaria inodora; 16 g of a.i./ha): 20%
- Herbicidal action 28 DAT against Matricaria inodora (Matricaria inodora; 16 g of a.i./ha): 15%
- Herbicidal action in [%] 14 DAT against Matricaria inodora (Matricaria inodora; 16 g of a.i./ha): 20% and 40%
- Herbicidal action (Matricaria inodora; 28 DAT): 0%
- Herbicidal action against Matricaria inodora (Matricaria inodora; 28 DAT, 1 g of a.i./ha): 15%
- Herbicidal action against Matricaria inodora (Matricaria inodora; 28 DAT, 16 g of a.i./ha): 15%
- Herbicidal action 14 DAT against Matricaria inodora (Matricaria inodora; (Z61) post-emergence, g of a.i./ha: 1, 270, 30, 1 + 270, 1 + 30): 0%
- Herbicidal action in [%] 14 DAT against Matricaria inodora (Matricaria inodora; post-emergence, 14 DAT, 4 g of a.i./ha): 30%
- Herbicidal action in [%] 14 DAT against Matricaria inodora (Matricaria inodora; post-emergence, 14 DAT, 16 g of a.i./ha): 40%
- Herbicidal action in [%] 14 DAT against Bromus sterilis (Bromus sterilis [3]): 15% and 30%
- Herbicidal action in [%] 28 DAT against Bromus sterilis (Bromus sterilis [3]): 15%
- Herbicidal action 14 DAT against Centaurea cyanus (Centaurea cyano; 1 g of a.i./ha): 20%
- Herbicidal action 28 DAT against Centaurea cyanus (Centaurea cyano; 1 g of a.i./ha): 10% and 0%
- Herbicidal action in [%] 14 DAT against Centaurea cyanus (Centaurea cyano; 1 g of a.i./ha): 30%
- Herbicidal action in [%] 28 DAT against Centaurea cyanus (Centaurea cyano; 1 g of a.i./ha): 10%
- Herbicidal action 14 DAT against Centaurea cyanus (Centaurea cyano; 4 g of a.i./ha): 50%
- Herbicidal action 28 DAT against Centaurea cyanus (Centaurea cyano; 4 g of a.i./ha): 20%
- Herbicidal action in [%] 14 DAT against Centaurea cyanus (Centaurea cyano; 4 g of a.i./ha): 50%
- Herbicidal action in [%] 28 DAT against Centaurea cyanus (Centaurea cyano; 4 g of a.i./ha): 50%
- Herbicidal action against Centaurea cyanus (Centaurea cyano; 14 DAT, 16 g of a.i./ha): 80%
- Herbicidal action in [%] 14 DAT against Centaurea cyanus (Centaurea cyano; 16 g of a.i./ha): 70%
- Herbicidal action in [%] 28 DAT against Centaurea cyanus (Centaurea cyano; 16 g of a.i./ha): 40% and 70%
- Herbicidal action in [%] 28 DAT against Centaurea cyano (Centaurea cyano; 16 g of a.i./ha, post-emergence): 70%
- Herbicidal action against Centaurea cyanus (Centaurea cyano; 28 DAT, 16 g of a.i./ha): 40%
- Herbicidal action 28 DAT against Centaurea cyanus (Centaurea cyano; [7]): 0%
- Herbicidal action in [%] 14 DAT against Lolium rigidum (Lolium rigidum [4]; 1 g of a.i./ha): 35% and 40%
- Herbicidal action in [%] 28 DAT against Lolium rigidum (Lolium rigidum [4]; 1 g of a.i./ha): 15% and 10%
- Herbicidal action in [%] 14 DAT against Lolium rigidum (Lolium rigidum [4]; 4 g of a.i./ha): 85%
- Herbicidal action in [%] 28 DAT against Lolium rigidum (Lolium rigidum [4]; 4 g of a.i./ha): 50% and 70%
- Herbicidal action (Lysimachia nummularia): 18%
- Herbicidal action against Bromus sterilis (Bromus sterilis [5]; 14 DAT, 1 g of a.i./ha): 15%
- Herbicidal action against Bromus sterilis (Bromus sterilis [5]; 14 DAT, 4 g of a.i./ha): 85%
- Herbicidal action against Bromus sterilis (Bromus sterilis [5]; 28 DAT, 1 g of a.i./ha): 15%
- Herbicidal action against Alopecurus myosuroides (Alopecurus myosuroides; 14 DAT, 1 g of a.i./ha): 15%
- Herbicidal action against Alopecurus myosuroides (Alopecurus myosuroides; 14 DAT, 4 g of a.i./ha): 90%
- Herbicidal action against Alopecurus myosuroides (Alopecurus myosuroides; 28 DAT, 1 g of a.i./ha): 15%
- Herbicidal action against Alopecurus myosuroides (Alopecurus myosuroides; 28 DAT, 4 g of a.i./ha): 50%
- Herbicidal action 14 DAT against Bromus sterilis (Bromus sterilis [6]; 1 g of a.i./ha): 15%
- Herbicidal action 28 DAT against Bromus sterilis (Bromus sterilis [6]; 1 g of a.i./ha): 15%
- Herbicidal action 14 DAT against Bromus sterilis (Bromus sterilis [6]; 4 g of a.i./ha): 85%
- Herbicidal action in [%] 14 DAT against Bromus sterilis (Bromus sterilis [6]; 14 DAT, 1 g of a.i./ha): 30%
- Herbicidal action in [%] 28 DAT against Bromus sterilis (Bromus sterilis [6]; 1 g of a.i./ha): 30%
- Herbicidal action in [%] 28 DAT against Bromus sterilis (Bromus sterilis [6]; 4 g of a.i./ha): 90%
- Herbicidal action 28 DAT against Bromus sterilis (Bromus sterilis [6]; [7]): 15%

— US12171230B2, “Herbicidal compositions” (Bayer Aktiengesellschaft, priority 2018, dated 2024)
